Experiments:
Assay in all cases: relative viability (nuclei count vs DMSO), 5 days (fraction); higher = more cells survive
[1] = compound: C#Cc1cccc(Nc2ncnc3cc(OC)c(OCCCCCCC(=O)NO)cc23)c1 [CUDC-101] + NC(=O)Nc1cc(-c2cccc(F)c2)sc1C(=O)N[C@H]1CCCNC1 [AZD7762] (partner 0.2 µM)
In short: (§1)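 Medians of duplicate plates are given as relative viability. That measure is the nuclei count in treated wells divided by the count in vehicle wells. Counts were taken on 4× images of lung cancer cell lines in 1536-well plates, 5 days after pin-tool dosing the day after seeding with one drug alone or a fixed anchor-drug dose plus five library-drug doses (not always all listed) in √10 steps.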

[2] = compound: C1=CC=C2C(=C1)N=C(S2)C(C#N)C3=NC(=NC=C3)NCCC4=CN=CC=C4 + COc1cccc2cc(-c3nc([C@H]4CC[C@H](C(=O)O)CC4)n4ncnc(N)c34)[nH]c12 [OSI-027] (partner 0.5 µM)
In short: as §1

[3] = compound: COc1cc(N2CCC(N3CCN(C)CC3)CC2)ccc1Nc1ncc(Cl)c(Nc2ccccc2S(=O)(=O)C(C)C)n1 [NVP-TAE684] + Cc1nc(NC(=O)N2CCC[C@H]2C(N)=O)sc1-c1ccnc(C(C)(C)C(F)(F)F)c1 [Alpelisib] (partner 2 µM)
In short: as §1

[4] = compound: COc1cc2/c(=N/c3ccc(Br)cc3F)nc[nH]c2cc1OCC1CCN(C)CC1 [Vandetanib] + Cc1nc(Nc2ncc(C(=O)Nc3c(C)cccc3Cl)s2)cc(N2CCN(CCO)CC2)n1 [Dasatinib] (partner 0.075 µM)
In short: as §1

Cell Line | relative viability ([1]; first compound 0.01 µM) | relative viability ([1]; first compound 0.03162 µM) | relative viability ([1]; first compound 0.1 µM) | relative viability ([1]; first compound 0.3162 µM) | relative viability ([1]; first compound 1 µM) | relative viability ([2]; first compound 0.005 µM) | relative viability ([2]; first compound 0.01581 µM) | relative viability ([2]; first compound 0.05 µM) | relative viability ([2]; first compound 0.1581 µM) | relative viability ([2]; first compound 0.5 µM) | relative viability ([3]; first compound 0.2 µM) | relative viability ([3]; first compound 0.6325 µM) | relative viability ([3]; first compound 2 µM) | relative viability ([4]; first compound 0.02 µM) | relative viability ([4]; first compound 0.06325 µM) | relative viability ([4]; first compound 0.2 µM) | relative viability ([4]; first compound 0.6325 µM) | relative viability ([4]; first compound 2 µM)
NCI-H727 | 0.627 | 0.403 | 0.562 | 0.619 | 0.476 | 0.814 | 0.526 | 0.568 | 0.748 | 0.508 | 0.591 | 0.409 | 0.275 | 0.403 | 0.408 | 0.317 | 0.318 | 0.329
PC-3 [JPC-3] | 0.731 | 0.752 | 0.65 | 0.538 | 0.361 | 0.717 | 0.877 | 0.771 | 0.888 | 0.483 | 0.963 | 1.02 | 0.893 | 0.952 | 0.865 | 0.954 | 0.497 | 0.571
NCI-H1792 | 0.789 | 0.513 | 0.687 | 0.653 | 0.423 | 0.648 | 0.64 | 0.759 | 1.16 | 0.36 | 0.647 | 0.718 | 0.684 | 0.774 | 0.803 | 0.783 | 0.884 | 0.725
NCI-H1355 | 0.657 | 0.645 | 0.846 | 0.747 | 0.598 | 0.402 | 0.348 | 0.341 | 0.411 | 0.369 | 0.721 | 0.928 | 0.473 | 0.633 | 0.723 | 0.694 | 0.679 | 0.775
HCC-827 | 0.206 | 0.145 | 0.13 | 0.117 | 0.113 | 0.617 | 1.11 | 0.854 | 0.978 | 0.783 | 1.05 | 1.05 | 0.822 | 0.489 | 0.276 | 0.284 | 0.152 | 0.13
NCI-H1944 | 0.503 | 0.466 | 0.44 | 0.311 | 0.198 | 0.396 | 0.343 | 0.417 | 0.513 | 0.359 | 0.786 | 0.797 | 0.691 | 0.208 | 0.218 | 0.205 | 0.195 | 0.215
NCI-H2405 | 0.763 | 0.704 | 0.809 | 0.747 | 0.649 | 0.666 | 0.673 | 0.614 | 0.695 | 0.645 | 0.835 | 0.662 | 0.374 | 0.217 | 0.183 | 0.2 | 0.187 | 0.199
NCI-H650 | 1.25 | 0.835 | 1.03 | 0.968 | 0.848 | 0.521 | – | 0.544 | 0.475 | 0.486 | 1.06 | 0.961 | 0.571 | 0.425 | 0.511 | – | 0.433 | 0.365
HCC-366 | 0.254 | 0.174 | 0.285 | 0.289 | 0.211 | 0.482 | 0.961 | 0.856 | 1.05 | 0.672 | 0.758 | 0.342 | 0.0918 | 0.6 | 0.625 | 0.663 | 0.561 | 0.637
NCI-H838 | 0.939 | 0.907 | 0.94 | 0.952 | 0.888 | 0.4 | 0.351 | 0.361 | 0.459 | 0.396 | 1.06 | 0.97 | 0.537 | 0.278 | 0.286 | 0.341 | 0.29 | 0.27
NCI-H358 | 0.565 | 0.493 | 0.518 | 0.261 | 0.237 | 0.726 | 0.749 | 0.805 | 0.913 | 0.739 | 0.751 | 0.478 | 0.203 | 0.131 | 0.201 | 0.161 | 0.136 | 0.124
HOP-62 | 0.61 | 0.448 | 0.447 | 0.424 | 0.294 | 0.669 | 0.828 | 0.762 | 0.989 | 0.793 | 1.16 | 0.891 | 0.946 | 0.611 | 0.569 | 0.671 | 0.573 | 0.684
NCI-H2170 | 1.07 | 0.839 | 0.819 | 0.892 | 0.723 | 0.687 | 0.653 | 0.718 | 0.698 | 0.706 | 0.702 | 0.789 | 0.672 | 0.55 | 0.555 | 0.487 | 0.462 | 0.609
NCI-H1651 | 0.502 | 0.442 | 0.534 | 0.398 | 0.349 | 0.69 | 0.672 | 0.72 | 0.939 | 0.674 | – | 1.02 | 0.994 | 0.313 | 0.461 | 0.431 | 0.394 | 0.386
NCI-H460 | 0.651 | 0.531 | 0.564 | 0.589 | 0.476 | 0.281 | 0.735 | 0.67 | 0.727 | 0.238 | 0.607 | 0.412 | 0.113 | 0.366 | 0.536 | 0.48 | 0.36 | 0.482
NCI-H1734 | 0.521 | 0.433 | 0.462 | 0.312 | 0.182 | – | 0.571 | 0.546 | 0.669 | 0.556 | 0.768 | 0.916 | 0.468 | 0.471 | 0.497 | 0.44 | 0.469 | 0.468
NCI-H1915 | 0.717 | 0.631 | 0.61 | 0.548 | 0.516 | 0.623 | 0.583 | 0.619 | 0.671 | 0.584 | 1.03 | 1.13 | 0.963 | 0.278 | 0.279 | 0.304 | 0.313 | 0.312
